Experimental data published in ChEMBL document CHEMBL2062454, “SAR studies around a series of triazolopyridines as potent and selective PI3Kγ inhibitors” (Bioorg Med Chem Lett, 2012).

How the values were obtained:
[1] = biological target: Phosphatidylinositol 4,5-bisphosphate 3-kinase catalytic subunit alpha isoform (Homo sapiens, UniProt P42336); assay: Inhibition of PI3Kalpha by high throughput chemoproteomics binding assay
[2] = biological target: T1, Phosphatidylinositol 4,5-bisphosphate 3-kinase catalytic subunit gamma isoform (Homo sapiens, UniProt P48736); assay: Inhibition of PI3Kgamma by high throughput chemoproteomics binding assay
[3] = biological target: T2, Phosphatidylinositol 4,5-bisphosphate 3-kinase catalytic subunit delta isoform (Homo sapiens, UniProt O00329); assay: Inhibition of PI3Kdelta by high throughput chemoproteomics binding assay
T2 sequence (O00329 whole entry): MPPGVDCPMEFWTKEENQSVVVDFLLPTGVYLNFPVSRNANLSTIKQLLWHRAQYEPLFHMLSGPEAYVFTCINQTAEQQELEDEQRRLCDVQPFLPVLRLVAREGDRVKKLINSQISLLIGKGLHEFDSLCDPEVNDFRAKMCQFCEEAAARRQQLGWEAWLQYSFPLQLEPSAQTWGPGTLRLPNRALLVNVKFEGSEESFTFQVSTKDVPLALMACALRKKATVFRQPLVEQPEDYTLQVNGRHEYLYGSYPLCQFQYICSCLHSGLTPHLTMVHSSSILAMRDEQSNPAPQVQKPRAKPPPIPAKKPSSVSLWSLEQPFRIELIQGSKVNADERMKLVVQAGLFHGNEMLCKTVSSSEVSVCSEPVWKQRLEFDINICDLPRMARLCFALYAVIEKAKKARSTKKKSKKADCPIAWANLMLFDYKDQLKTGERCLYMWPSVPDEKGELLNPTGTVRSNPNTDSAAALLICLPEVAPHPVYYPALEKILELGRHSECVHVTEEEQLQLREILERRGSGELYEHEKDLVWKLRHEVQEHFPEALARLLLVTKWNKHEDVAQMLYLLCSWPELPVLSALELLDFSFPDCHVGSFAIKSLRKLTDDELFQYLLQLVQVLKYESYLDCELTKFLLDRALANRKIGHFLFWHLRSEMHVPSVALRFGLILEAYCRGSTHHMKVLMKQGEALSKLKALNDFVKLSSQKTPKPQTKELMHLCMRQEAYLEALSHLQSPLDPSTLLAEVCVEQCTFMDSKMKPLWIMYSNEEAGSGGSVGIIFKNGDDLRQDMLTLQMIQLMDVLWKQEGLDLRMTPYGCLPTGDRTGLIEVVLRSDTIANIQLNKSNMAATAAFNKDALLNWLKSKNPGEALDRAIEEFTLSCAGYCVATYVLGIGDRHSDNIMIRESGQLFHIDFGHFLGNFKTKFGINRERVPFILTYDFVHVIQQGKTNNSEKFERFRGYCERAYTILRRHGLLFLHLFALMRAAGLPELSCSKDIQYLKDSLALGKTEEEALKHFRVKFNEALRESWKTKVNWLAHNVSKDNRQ

[4] = biological target: Phosphatidylinositol 4,5-bisphosphate 3-kinase catalytic subunit beta isoform (Homo sapiens, UniProt P42338); assay: Inhibition of PI3Kbeta by high throughput chemoproteomics binding assay
[5] = Protein binding in plasma; type: ADME, cell-free; settings: read-out: PPB
[6] = biological target: T1, Phosphatidylinositol 4,5-bisphosphate 3-kinase catalytic subunit gamma isoform; assay: Inhibition of PI3Kgamma assessed as inhibition of C5a-induced AKT phosphorylation at Ser473 by cell based assay
[7] = Half life in rat microsomes; type: ADME, Microsome
[8] = Half life in mouse microsomes; type: ADME, Microsome
[9] = Half life in human microsomes; type: ADME, Microsome
Homo sapiens [10] = organism: Homo sapiens; assay: Selectivity ratio of IC50 for PI3Kalpha to IC50 for PI3Kgamma
Homo sapiens [11] = organism: Homo sapiens; assay: Selectivity ratio of IC50 for PI3Kbeta to IC50 for PI3Kgamma
Homo sapiens [12] = organism: Homo sapiens; assay: Selectivity ratio of IC50 for PI3Kdelta to IC50 for PI3Kgamma

Phosphatidylinositol 4,5-bisphosphate 3-kinase catalytic subunit beta isoform, sequence (P42338 whole entry, canonical isoform): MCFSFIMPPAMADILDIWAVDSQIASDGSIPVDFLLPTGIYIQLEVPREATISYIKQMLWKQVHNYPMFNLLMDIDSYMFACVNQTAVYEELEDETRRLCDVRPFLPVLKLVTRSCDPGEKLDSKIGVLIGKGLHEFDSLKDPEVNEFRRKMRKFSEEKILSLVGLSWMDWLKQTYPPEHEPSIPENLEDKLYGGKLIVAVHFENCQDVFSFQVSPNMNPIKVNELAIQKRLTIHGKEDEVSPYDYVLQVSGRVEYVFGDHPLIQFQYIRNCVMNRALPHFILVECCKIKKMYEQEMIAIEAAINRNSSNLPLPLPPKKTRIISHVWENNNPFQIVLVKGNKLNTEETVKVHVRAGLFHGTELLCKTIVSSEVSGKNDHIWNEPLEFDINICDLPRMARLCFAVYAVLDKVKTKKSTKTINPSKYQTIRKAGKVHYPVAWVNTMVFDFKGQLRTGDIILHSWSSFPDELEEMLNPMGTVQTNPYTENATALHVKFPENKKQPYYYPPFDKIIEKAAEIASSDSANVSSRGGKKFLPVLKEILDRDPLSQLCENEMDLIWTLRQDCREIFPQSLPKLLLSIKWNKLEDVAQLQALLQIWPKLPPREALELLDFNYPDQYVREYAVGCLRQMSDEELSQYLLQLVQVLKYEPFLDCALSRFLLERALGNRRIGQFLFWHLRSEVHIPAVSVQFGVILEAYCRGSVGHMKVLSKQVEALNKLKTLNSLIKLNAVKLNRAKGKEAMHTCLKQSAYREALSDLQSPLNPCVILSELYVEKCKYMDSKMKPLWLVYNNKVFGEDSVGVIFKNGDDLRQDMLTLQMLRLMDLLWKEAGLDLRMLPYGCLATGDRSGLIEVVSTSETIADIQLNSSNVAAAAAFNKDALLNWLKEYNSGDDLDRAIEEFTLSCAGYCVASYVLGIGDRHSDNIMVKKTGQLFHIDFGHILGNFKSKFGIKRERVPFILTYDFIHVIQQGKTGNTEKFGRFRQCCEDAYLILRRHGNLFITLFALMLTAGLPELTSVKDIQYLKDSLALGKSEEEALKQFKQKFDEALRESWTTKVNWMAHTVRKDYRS
Phosphatidylinositol 4,5-bisphosphate 3-kinase catalytic subunit alpha isoform, sequence (P42336 whole entry, canonical isoform): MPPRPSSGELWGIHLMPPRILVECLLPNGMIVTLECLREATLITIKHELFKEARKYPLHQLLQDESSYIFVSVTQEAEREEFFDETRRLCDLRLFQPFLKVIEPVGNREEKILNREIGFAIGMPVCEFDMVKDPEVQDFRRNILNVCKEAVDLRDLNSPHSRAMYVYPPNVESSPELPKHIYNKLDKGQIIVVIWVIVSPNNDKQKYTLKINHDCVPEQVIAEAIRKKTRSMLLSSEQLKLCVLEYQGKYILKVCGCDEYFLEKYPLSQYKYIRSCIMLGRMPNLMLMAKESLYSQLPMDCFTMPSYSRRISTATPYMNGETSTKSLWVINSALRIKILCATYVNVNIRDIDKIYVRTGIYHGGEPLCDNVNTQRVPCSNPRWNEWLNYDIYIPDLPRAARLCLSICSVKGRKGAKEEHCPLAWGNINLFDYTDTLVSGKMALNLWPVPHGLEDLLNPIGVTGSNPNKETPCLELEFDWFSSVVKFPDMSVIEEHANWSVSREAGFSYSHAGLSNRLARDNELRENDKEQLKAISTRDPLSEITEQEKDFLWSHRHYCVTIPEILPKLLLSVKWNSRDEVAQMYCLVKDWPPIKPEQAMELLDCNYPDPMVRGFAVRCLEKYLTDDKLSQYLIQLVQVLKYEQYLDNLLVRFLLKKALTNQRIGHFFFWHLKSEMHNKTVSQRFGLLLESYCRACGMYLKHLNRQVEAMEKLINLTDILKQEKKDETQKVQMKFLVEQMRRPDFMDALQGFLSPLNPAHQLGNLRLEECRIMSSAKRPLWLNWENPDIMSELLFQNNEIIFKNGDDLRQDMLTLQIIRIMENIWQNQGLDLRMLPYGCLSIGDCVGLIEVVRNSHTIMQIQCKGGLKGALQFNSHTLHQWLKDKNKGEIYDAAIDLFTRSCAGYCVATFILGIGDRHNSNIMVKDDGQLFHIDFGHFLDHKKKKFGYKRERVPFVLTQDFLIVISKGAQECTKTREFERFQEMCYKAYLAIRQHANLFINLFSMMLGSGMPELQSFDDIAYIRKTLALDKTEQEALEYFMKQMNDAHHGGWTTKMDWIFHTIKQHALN
T1 sequence (P48736 whole entry, canonical isoform): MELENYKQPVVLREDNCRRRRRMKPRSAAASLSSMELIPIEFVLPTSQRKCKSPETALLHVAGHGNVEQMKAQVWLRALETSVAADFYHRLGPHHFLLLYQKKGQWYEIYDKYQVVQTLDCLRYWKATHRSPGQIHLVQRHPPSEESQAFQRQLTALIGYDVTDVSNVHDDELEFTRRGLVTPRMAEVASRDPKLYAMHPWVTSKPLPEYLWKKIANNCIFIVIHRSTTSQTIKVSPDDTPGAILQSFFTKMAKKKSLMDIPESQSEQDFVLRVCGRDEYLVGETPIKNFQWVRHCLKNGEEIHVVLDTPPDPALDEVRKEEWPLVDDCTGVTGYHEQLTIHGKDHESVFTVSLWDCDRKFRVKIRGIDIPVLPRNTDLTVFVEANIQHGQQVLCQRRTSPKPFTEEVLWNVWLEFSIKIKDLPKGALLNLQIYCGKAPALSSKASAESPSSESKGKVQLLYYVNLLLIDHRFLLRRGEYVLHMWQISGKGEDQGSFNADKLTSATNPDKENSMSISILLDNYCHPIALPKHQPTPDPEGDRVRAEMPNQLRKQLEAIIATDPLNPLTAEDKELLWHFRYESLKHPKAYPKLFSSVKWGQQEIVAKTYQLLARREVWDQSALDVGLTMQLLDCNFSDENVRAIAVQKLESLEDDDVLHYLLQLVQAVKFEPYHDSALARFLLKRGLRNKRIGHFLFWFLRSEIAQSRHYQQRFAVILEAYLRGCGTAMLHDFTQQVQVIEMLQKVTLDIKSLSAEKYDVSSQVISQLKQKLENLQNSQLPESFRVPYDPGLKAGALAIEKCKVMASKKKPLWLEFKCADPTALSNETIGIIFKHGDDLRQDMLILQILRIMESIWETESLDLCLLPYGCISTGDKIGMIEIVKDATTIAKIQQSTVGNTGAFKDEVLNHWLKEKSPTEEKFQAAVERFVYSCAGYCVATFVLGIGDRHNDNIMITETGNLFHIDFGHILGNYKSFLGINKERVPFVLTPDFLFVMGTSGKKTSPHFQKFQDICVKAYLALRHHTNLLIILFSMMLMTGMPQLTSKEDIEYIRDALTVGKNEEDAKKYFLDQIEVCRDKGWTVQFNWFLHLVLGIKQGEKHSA

| Compound | IC50 [1] [µM] | IC50 [2] [µM] | IC50 [3] [µM] | further results |
| --- | --- | --- | --- | --- |
| CS(=O)(=O)Nc1cccc(-c2ccc3nc(NC(=O)C4CCCCC4)nn3c2)c1 | > 100 | 0.316 | 0.501 | – |
| CC(=O)Nc1nc2ccc(-c3cncc(S(C)(=O)=O)c3)c(C)n2n1 | > 100 | 1 | > 39.8 | IC50 [4]: 25.1 µM |
| CC(C)(C)NS(=O)(=O)c1cncc(-c2cn3nc(N)nc3cc2F)c1 | > 100 | 25.1 | > 100 | IC50 [4]: > 100 µM |
| CS(=O)(=O)c1cncc(-c2ccc3nc(N)nn3c2)c1 | – | – | – | IC50 [6]: 2 µM |
| CC(=O)Nc1nc2ccc(-c3cncc(S(C)(=O)=O)c3)cn2n1 | – | – | – | half-life [7]: > 45 min; half-life [8]: > 45 min; half-life [9]: > 45 min |
| CC(=O)Nc1nc2ccc(-c3cccc(S(=O)(=O)NCc4ccccc4)c3)cn2n1 | > 100 | 0.501 | 6.31 | – |
| CS(=O)(=O)c1cncc(-c2cc(Cl)c3nc(N)nn3c2)c1 | > 100 | 2 | > 100 | IC50 [4]: > 100 µM |
| COc1cccc(-c2ccc3nc(NC(C)=O)nn3c2)c1 | > 79.4 | 0.158 | > 79.4 | – |
| CN(C)c1nc2ccc(-c3cncc(S(C)(=O)=O)c3)cn2n1 | > 100 | 3.16 | > 100 | – |
| CNS(=O)(=O)c1ccc(-c2ccc3nc(NC(C)=O)nn3c2)cc1 | > 100 | > 50.1 | > 100 | – |
| CS(=O)(=O)Nc1nc2ccc(-c3cncc(S(C)(=O)=O)c3)cn2n1 | > 100 | > 39.8 | > 100 | – |
| COc1ccccc1-c1ccc2nc(NC(C)=O)nn2c1 | > 100 | 3.98 | 31.6 | IC50 [4]: > 100 µM; Ratio IC50 (Homo sapiens [10]): > 30; Ratio IC50 (Homo sapiens [11]): > 30; Ratio IC50 (Homo sapiens [12]): 5 |
| CC(=O)N(C)c1nc2ccc(-c3cccc(S(C)(=O)=O)c3)cn2n1 | > 100 | > 31.6 | > 100 | – |
| CS(=O)(=O)c1cncc(-c2cc(C(F)(F)F)c3nc(N)nn3c2)c1 | > 100 | > 100 | > 100 | – |
| COc1ccc(-c2ccc3nc(NC(C)=O)nn3c2)cc1S(=O)(=O)NCc1ccccc1 | > 100 | > 100 | > 10 | – |
| CC(=O)Nc1nc2ccc(-c3cncc4ccccc34)cn2n1 | > 100 | 3.16 | > 100 | – |
| CC(=O)Nc1nc2ccc(-c3ccc(S(C)(=O)=O)cc3)cn2n1 | > 100 | > 100 | > 100 | – |
| CC(=O)Nc1nc2ccc(-c3cnn(C)c3)cn2n1 | > 63.1 | 3.98 | > 100 | – |
| CC(=O)Nc1nc2cc(C)c(-c3cncc(S(C)(=O)=O)c3)cn2n1 | > 100 | > 100 | > 100 | IC50 [4]: 200 µM |

More lines, main results first:

| IC50 [1] [µM] | IC50 [2] [µM] | IC50 [3] [µM] | Compound | further results |
| --- | --- | --- | --- | --- |
| 1.58 | 1.58 | > 100 | CC(=O)Nc1nc2ccc(-c3ccncc3)cn2n1 | – |
| 0.158 | 0.00631 | 0.398 | Nc1nc2ccc(-c3cncc(NS(=O)(=O)c4ccc(Cl)cc4)c3)cn2n1 | fraction unbound [5]: < 0.01; IC50 [6]: 2 µM |
| > 39.8 | 0.1 | > 5.01 | CC(=O)Nc1nc2c(C)cc(-c3cncc(S(C)(=O)=O)c3)cn2n1 | IC50 [4]: 20 µM |
| > 0.1 | 0.00794 | > 1 | CC(=O)Nc1nc2ccc(-c3cncc(CS(N)(=O)=O)c3)cn2n1 | – |
| > 15.8 | 3.98 | > 100 | CC(=O)Nc1nc2ccc(-c3cncnc3)cn2n1 | – |
| > 15.8 | 0.158 | 3.16 | CC(C)(C)S(=O)(=O)c1cncc(-c2ccc3nc(N)nn3c2)c1 | IC50 [6]: > 10 µM |
| > 50.1 | 0.631 | > 100 | CNC(=O)c1cccc(-c2ccc3nc(NC(C)=O)nn3c2)c1 | – |
| 25.1 | 1 | 31.6 | COc1ccc(-c2ccc3nc(NC(C)=O)nn3c2)cc1 | – |
| > 3.98 | 0.316 | > 25.1 | CNc1nc2ccc(-c3cncc(S(C)(=O)=O)c3)cn2n1 | – |
| 2.51 | 0.0316 | 1.58 | CC(C)NS(=O)(=O)c1cncc(-c2ccc3nc(N)nn3c2)c1 | half-life [7]: > 45 min; IC50 [6]: 1.58 µM; half-life [8]: > 45 min; half-life [9]: > 45 min |
| 5.01 | 0.316 | 5.01 | CC(=O)Nc1nc2ccc(-c3cccc(NS(C)(=O)=O)c3)cn2n1 | – |
| > 3.16 | 0.0398 | 3.16 | CC(=O)Nc1nc2ccc(-c3cncc(S(=O)(=O)NCc4ccccc4)c3)cn2n1 | – |
| > 3.98 | 0.0631 | > 10 | COc1cncc(-c2ccc3nc(NC(C)=O)nn3c2)c1 | – |
| > 10 | 0.251 | 1 | CNS(=O)(=O)c1cccc(-c2ccc3nc(NC(C)=O)nn3c2)c1 | – |
| 12.6 | 2 | 6.31 | CC(=O)Nc1nc2ccc(-c3cc(C)c(O)c(C)c3)cn2n1 | IC50 [4]: 20 µM; Ratio IC50 (Homo sapiens [10]): 6.3; Ratio IC50 (Homo sapiens [11]): 10; Ratio IC50 (Homo sapiens [12]): 5 |
| > 20 | 0.251 | 7.94 | Nc1nc2ccc(-c3cncc(S(=O)(=O)NCc4ccccc4)c3)cn2n1 | IC50 [6]: 1.26 µM |
| 0.2 | 0.398 | > 20 | CC(=O)Nc1nc2ccc(-c3ccsc3)cn2n1 | – |
| > 50.1 | 0.501 | 3.16 | CC(=O)Nc1nc2ccc(-c3cccc(S(C)(=O)=O)c3)cn2n1 | IC50 [6]: > 12.6 µM |
| 3.16 | 0.0158 | > 6.31 | Nc1nc2ccc(-c3cncc(S(=O)(=O)NCC4CC4)c3)cn2n1 | IC50 [6]: 2 µM |
| 10 | 0.2 | 1.26 | CCCCNS(=O)(=O)c1cccc(-c2ccc3nc(NC(C)=O)nn3c2)c1 | – |
| > 20 | > 3.98 | > 100 | CC(=O)Nc1nc2ccc(-c3cccc(-c4ccccc4)c3)cn2n1 | – |
| 3.98 | 0.631 | 6.31 | Nc1nc2ccc(-c3cncc(S(=O)(=O)Nc4ccc(Cl)cc4)c3)cn2n1 | IC50 [6]: > 12.6 µM |
| 15.8 | 0.251 | > 31.6 | CC(=O)Nc1nc2ccc(-c3cccnc3)cn2n1 | Ratio IC50 (Homo sapiens [10]): > 60; Ratio IC50 (Homo sapiens [12]): > 60 |
| 6.31 | > 12.6 | > 100 | CC(=O)Nc1nc2ccc(-c3sc(C)nc3C)cn2n1 | – |
| > 20 | 0.126 | > 20 | CC(=O)Nc1nc2c(F)cc(-c3cncc(S(C)(=O)=O)c3)cn2n1 | IC50 [4]: 20 µM |
| 0.316 | 0.0398 | 2 | COc1ccc(-c2ccc3nc(NC(C)=O)nn3c2)cc1OC | – |
